# pIC50: −log10 of the molar value.
# System: Plasmodium berghei
# Test: Luciferase/luciferin-expressing antifolate-resistant parasites were used to infect a culture of HepG2 cells that were pre-incubated with compounds. Infected hepatocytes emit light due to the luciferase reaction. Assay results are presented as the percent inhibition of light emission compared to control. […]
# Format: functional
# Settings: sporozoite; for IC90: read-out: LUCIFERASE INFECTION ASSAY - IC90
# [1] = read-out: LUCIFERASE INFECTION ASSAY - IC50
smiles,measurement,setting,value
Cc1ccc(-c2nn(-c3ccccc3)cc2/C=C/C(=O)NCc2ccc(-n3ccnc3)nc2)cc1,pIC50,"PBLUC_HILL_SLOPE 2.1, PBLUC_R_SQUARED 0.668, read-out: LUCIFERASE INFECTION ASSAY - IC50",5.29
same,IC90,,> 10 µM
Fc1ccc(-c2cc3[nH]c(NCc4ccccc4)nc3cn2)cc1Cl,pIC50,"HEPG2TOX_HILL_SLOPE 17.8, HEPG2TOX_R_SQUARED 0.722, PBLUC_HILL_SLOPE 354, PBLUC_R_SQUARED 0.159, read-out: LUCIFERASE INFECTION ASSAY - IC50",5.27
same,IC90,,5.42 µM
Cn1nc(-c2ccccc2)c(-c2nc3ccccc3n2C)c1-c1ccccc1,pIC50,"HEPG2TOX_HILL_SLOPE 2.41, HEPG2TOX_R_SQUARED 0.613, PBLUC_HILL_SLOPE 4.44, PBLUC_R_SQUARED 0.302, read-out: LUCIFERASE INFECTION ASSAY - IC50",5.26
same,IC90,,8.97 µM
CC(C)OC(=O)c1nnsc1S(=O)(=O)c1ccc(Cl)cc1,pIC50,[1],< 5.02
same,IC90,,> 9.52 µM
CNC(=O)c1ccc(CN(Cc2ccco2)Cc2cccc3cccnc23)cc1,pIC50,[1],< 5.00
same,IC90,,> 10 µM
CN(C)n1cccc1/C=C(\C#N)S(C)(=O)=O,pIC50,[1],< 4.86
same,IC90,,> 13.8 µM
CCNC(=O)COc1ccc(/C=C/C(=O)c2ccc(N3CCCCC3)cc2)cc1OC,pIC50,"HEPG2TOX_HILL_SLOPE 9.05, HEPG2TOX_R_SQUARED 0.908, PBLUC_HILL_SLOPE 2.57, PBLUC_R_SQUARED 0.344, read-out: LUCIFERASE INFECTION ASSAY - IC50",5.29
same,IC90,,> 10 µM
c1ccc(OCCCN2CCC(c3nc4ccccc4s3)CC2)cc1,pIC50,"PBLUC_HILL_SLOPE 3.81, PBLUC_R_SQUARED 0.48, read-out: LUCIFERASE INFECTION ASSAY - IC50",5.11
same,IC90,,> 9.36 µM
c1ccc2c(CSCCC34CC5CC(CC(C5)C3)C4)cccc2c1,pIC50,[1],< 5.00
same,IC90,,> 10 µM
CC(C)(C)NC(=S)N/N=C/c1cccc(O)c1O,pIC50,[1],< 4.91
same,IC90,,> 12.3 µM
CCOc1ccc2ccccc2c1/C=C/c1ccc2cccc(O)c2n1,pIC50,"HEPG2TOX_HILL_SLOPE 14.8, HEPG2TOX_R_SQUARED 0.407, PBLUC_HILL_SLOPE 11.5, PBLUC_R_SQUARED 0.372, read-out: LUCIFERASE INFECTION ASSAY - IC50",5.50
same,IC90,,3.84 µM
CN1C/C(=C\c2ccccc2)C(=O)/C(=C/c2ccccc2)C1,pIC50,[1],< 4.94
same,IC90,,> 11.4 µM
CC(Sc1nc(-c2ccccc2)c(-c2ccccc2)o1)C(=O)NC1CC1 (stereo unspecified),pIC50,"PBLUC_HILL_SLOPE 75.9, PBLUC_R_SQUARED 0.255, read-out: LUCIFERASE INFECTION ASSAY - IC50",5.27
same,IC90,,5.53 µM
CCCN(CC(=O)Nc1cc(Cl)ccc1Cl)CC(=O)Nc1sccc1C(N)=O,pIC50,[1],< 5.00
same,IC90,,> 10 µM
COCCNc1ccc(C(=O)NCCN2CCN(c3cccc(C)c3)CC2)cc1[N+](=O)[O-],pIC50,"PBLUC_HILL_SLOPE 2.05, PBLUC_R_SQUARED 0.556, read-out: LUCIFERASE INFECTION ASSAY - IC50",5.20
same,IC90,,> 10 µM
CCCn1nc(C(=O)Nc2ccccc2Cc2ccccc2)c2ccccc2c1=O,pIC50,"FFLUC_HILL_SLOPE 12.7, FFLUC_R_SQUARED 0.0456, HEPG2TOX_HILL_SLOPE 0.0305, HEPG2TOX_R_SQUARED 0.0383, read-out: LUCIFERASE INFECTION ASSAY - IC50",< 5.00
same,IC90,,> 10 µM
Cc1ccc(-n2c(=O)c3ccccc3n3c(SCc4nnnn4C4CC4)nnc23)c(C)c1,pIC50,[1],< 5.00
same,IC90,,> 10 µM
Cc1ccc(-c2nn(CN(C)CC(=O)NC(C)C)c(=S)n2C)cc1,pIC50,[1],< 5.00
same,IC90,,> 10 µM
CCN(CC)C(=O)COC(=O)c1ccc2c(c1)C(=O)N(CCC(C)C)C2=O,pIC50,[1],< 5.00
same,IC90,,> 10 µM
N#Cc1cccc(CN2CCN3C(C(=O)Nc4ccc(-n5cccc5)cc4)=COC3=NC2=O)c1,pIC50,[1],< 5.00
same,IC90,,> 10 µM
C=CCN(C(=O)c1cc(C2CC2)nc2ccccc12)c1nc2c(s1)CCCC2,pIC50,[1],< 5.00
same,IC90,,> 10 µM
Cc1cc2ccccn2c1C(=O)c1nc(S(C)(=O)=O)ncc1Cl,pIC50,"HEPG2TOX_HILL_SLOPE 4.52, HEPG2TOX_R_SQUARED 0.995, PBLUC_HILL_SLOPE 10.9, PBLUC_R_SQUARED 0.162, read-out: LUCIFERASE INFECTION ASSAY - IC50",5.09
same,IC90,,> 10 µM
CCCOc1ccccc1NC(=O)c1cnc2c(c1)c(=O)[nH]c(=O)n2C,pIC50,[1],< 5.00
same,IC90,,> 10 µM
Cc1ccc(NC(=S)NCc2ccccn2)cc1C,pIC50,[1],< 4.91
same,IC90,,> 12.2 µM
Cc1nn(-c2ccccc2)c2c1C(C(F)(F)F)(C(F)(F)F)OC(c1cccc(S(=O)(=O)N3CCCCC3)c1)=N2,pIC50,[1],< 5.00
same,IC90,,> 10 µM
COC(=O)c1cc(CSc2nc3ccccc3c(=O)n2-c2ccc(OC)cc2)oc1C,pIC50,"PBLUC_HILL_SLOPE 8.32, PBLUC_R_SQUARED 0.0862, read-out: LUCIFERASE INFECTION ASSAY - IC50",< 5.00
same,IC90,,> 10 µM
CCN(CCC#N)c1ccc(/C=C2/C(=O)Nc3cc(Cl)ccc32)c(C)c1,pIC50,[1],< 5.00
same,IC90,,> 10 µM
Cc1nc(Cc2nc(-c3ccc(S(C)(=O)=O)cc3)cs2)cs1,pIC50,[1],< 5.00
same,IC90,,> 10 µM
CCOc1ccc2nc(N/N=C3/C(=O)N(c4ccccc4)N=C3C)sc2c1,pIC50,"PBLUC_HILL_SLOPE 22.7, PBLUC_R_SQUARED 0.625, read-out: LUCIFERASE INFECTION ASSAY - IC50",5.07
same,IC90,,9.42 µM
Cc1nc2nc(C(F)(F)F)nn2c(C)c1CCC(=O)N1CCCC1c1ccc2c(c1)OCCCO2 (stereo unspecified),pIC50,"PBLUC_HILL_SLOPE 2.87, PBLUC_R_SQUARED 0.605, read-out: LUCIFERASE INFECTION ASSAY - IC50",5.38
same,IC90,,8.93 µM
Cc1cc([N+](=O)[O-])cc(S(=O)(=O)N(C)Cc2ccc(C(=O)NC3CC3)cc2)c1C,pIC50,"FFLUC_HILL_SLOPE 30.1, FFLUC_R_SQUARED 0.449, PBLUC_HILL_SLOPE 4.67, PBLUC_R_SQUARED 0.152, read-out: LUCIFERASE INFECTION ASSAY - IC50",5.37
same,IC90,,6.84 µM
Cc1ccc(C)c(-c2nn(C(C)C(=O)Nc3cc(C)on3)c(=O)c3ccccc23)c1 (stereo unspecified),pIC50,"HEPG2TOX_HILL_SLOPE 5.97, HEPG2TOX_R_SQUARED 0.339, PBLUC_HILL_SLOPE 3.63, PBLUC_R_SQUARED 0.528, read-out: LUCIFERASE INFECTION ASSAY - IC50",5.68
same,IC90,,3.83 µM
COc1ccccc1-c1ccnc2n[nH]c(-c3cc(OC)c(OC)c(OC)c3)c12,pIC50,"HEPG2TOX_HILL_SLOPE 2.69, HEPG2TOX_R_SQUARED 0.93, PBLUC_HILL_SLOPE 7.13, PBLUC_R_SQUARED 0.294, read-out: LUCIFERASE INFECTION ASSAY - IC50",5.54
same,IC90,,3.93 µM
Cc1nc(SCc2csc(-c3ccccc3)n2)c(C#N)c(C)c1C,pIC50,[1],< 5.00
same,IC90,,> 10 µM
CCNC(=O)C1(C)CCCN1C(=O)c1ccc(OC)cc1 (stereo unspecified),pIC50,[1],< 4.94
same,IC90,,> 11.4 µM
Cc1ccc(-c2nc(C)sc2CC(=O)NC2CCN(C3CC3)C2)cc1 (stereo unspecified),pIC50,[1],< 5.00
same,IC90,,> 10 µM
Cn1ccnc1SCC(=O)N1N=C2/C(=C/c3ccccc3)CCCC2C1c1ccccc1 (stereo unspecified),pIC50,"PBLUC_HILL_SLOPE 2.84, PBLUC_R_SQUARED 0.326, read-out: LUCIFERASE INFECTION ASSAY - IC50",5.08
same,IC90,,> 10 µM
Cc1cc(C(=O)CSc2nc3ccccc3s2)c(C)n1CC1CCCO1 (stereo unspecified),pIC50,[1],< 5.00
same,IC90,,> 10 µM
COc1cccc(C(=O)Nc2cccc(Nc3ccc(-c4cc(OC)c(OC)c(OC)c4)cn3)c2)c1,pIC50,[1],< 5.17
same,IC90,,> 6.8 µM
Cc1sc2ncnc(NC(C)C(=O)Nc3ccc4c(c3)OCCCO4)c2c1C (stereo unspecified),pIC50,[1],5.09
same,IC90,,> 10 µM
Cc1nc(SC(C)C(=O)c2c[nH]c3ccccc23)c2c(=O)n(C)c(=O)n(CC(C)C)c2n1 (stereo unspecified),pIC50,"FFLUC_HILL_SLOPE 11.3, FFLUC_R_SQUARED 0.363, PBLUC_HILL_SLOPE 2.42, PBLUC_R_SQUARED 0.455, read-out: LUCIFERASE INFECTION ASSAY - IC50",5.13
same,IC90,,> 10 µM
O=C(Nc1ccc(N2CCCC2)cn1)c1cccc(Cl)c1,pIC50,"FFLUC_HILL_SLOPE 1.87, FFLUC_R_SQUARED 0.554, HEPG2TOX_HILL_SLOPE 1.22, HEPG2TOX_R_SQUARED 0.956, PBLUC_HILL_SLOPE 1.63, PBLUC_R_SQUARED 0.915, read-out: LUCIFERASE INFECTION ASSAY - IC50",7.42
same,IC90,,0.145 µM
Nc1n[nH]c(Nc2cccc(Cl)c2Cl)c1C(=O)c1cccs1,pIC50,"PBLUC_HILL_SLOPE 0.162, PBLUC_R_SQUARED 0.284, read-out: LUCIFERASE INFECTION ASSAY - IC50",> 7.89
same,IC90,,3.45 µM
COc1cccc(-c2cc3c(Nc4cccc(N(C)C)c4)nccc3n2C)c1,pIC50,"PBLUC_HILL_SLOPE 3.57, PBLUC_R_SQUARED 0.3, read-out: LUCIFERASE INFECTION ASSAY - IC50",5.35
same,IC90,,8.25 µM
CCCOc1ccc2cc(C(=O)c3c(C)[nH]c(C)c3C(=O)OCC)oc2c1,pIC50,"HEPG2TOX_HILL_SLOPE 4.85, HEPG2TOX_R_SQUARED 0.69, PBLUC_HILL_SLOPE 11.9, PBLUC_R_SQUARED 0.276, read-out: LUCIFERASE INFECTION ASSAY - IC50",5.03
same,IC90,,> 10 µM
O=C(O)c1cccc2cccc([S+]([O-])c3ccccc3CO)c12 (stereo unspecified),pIC50,"FFLUC_HILL_SLOPE 17.8, FFLUC_R_SQUARED 0.335, read-out: LUCIFERASE INFECTION ASSAY - IC50",< 5.00
same,IC90,,> 10.1 µM
CCOC(=O)c1c(C)[nH]c(C(=O)CSc2nnc(C3CC3)n2N)c1C,pIC50,"PBLUC_HILL_SLOPE 1.71, PBLUC_R_SQUARED 0.964, read-out: LUCIFERASE INFECTION ASSAY - IC50",6.63
same,IC90,,0.847 µM
Cn1c(=O)[nH]c(=O)c2ccc(C(=O)/N=c3/sccn3Cc3ccc(Cl)cc3Cl)nc21,pIC50,"HEPG2TOX_HILL_SLOPE 1.78, HEPG2TOX_R_SQUARED 0.947, PBLUC_HILL_SLOPE 2.11, PBLUC_R_SQUARED 0.878, read-out: LUCIFERASE INFECTION ASSAY - IC50",5.74
same,IC90,,5.16 µM
